Reference: patent US20090325936A1, “IMIDAZOPYRIDINE ANALOGS AS CB2 RECEPTOR MODULATORS, USEFUL IN THE TREATMENT OF PAIN, RESPIRATORY AND NON-RESPIRATORY DISEASES” (priority 2006, published 2009)
Read-outs that look alike come from different tables or passages of the source.

Key:
human CB2 = human CB2 (Homo sapiens, UniProt P34972); assay: Cyclic AMP assay (HTRF), CHO cells expressing human CB2; format: cell-based; details: for Emax: CHO, read-out: CB2 Emax
Experimental: (§1) Chinese Hamster Ovary cells (CHO) expressing human CB1 or human CB2 (3.3×10^5 cells/ml) were preincubated for 15 min at room temperature with tested agonist and 3-isobutyl-1-methylxanthine (IBMX; 200 μM) in phosphate buffered saline containing 1 mg/ml BSA (assay buffer) followed by 30 min incubation with forskolin in a total volume of 10 μl. The optimal forskolin concentration for each cell line was established in a separate experiment and adjusted to stimulate 70% of maximal cAMP response. cAMP content was measured using an HTRF assay (CisBio) according to the manufacturer's two step protocol.

human CB1 = human CB1 (Homo sapiens, UniProt P21554); assay: Cyclic AMP assay (HTRF), CHO cells expressing human CB1; format: cell-based
human CB1, sequence (P21554 whole entry): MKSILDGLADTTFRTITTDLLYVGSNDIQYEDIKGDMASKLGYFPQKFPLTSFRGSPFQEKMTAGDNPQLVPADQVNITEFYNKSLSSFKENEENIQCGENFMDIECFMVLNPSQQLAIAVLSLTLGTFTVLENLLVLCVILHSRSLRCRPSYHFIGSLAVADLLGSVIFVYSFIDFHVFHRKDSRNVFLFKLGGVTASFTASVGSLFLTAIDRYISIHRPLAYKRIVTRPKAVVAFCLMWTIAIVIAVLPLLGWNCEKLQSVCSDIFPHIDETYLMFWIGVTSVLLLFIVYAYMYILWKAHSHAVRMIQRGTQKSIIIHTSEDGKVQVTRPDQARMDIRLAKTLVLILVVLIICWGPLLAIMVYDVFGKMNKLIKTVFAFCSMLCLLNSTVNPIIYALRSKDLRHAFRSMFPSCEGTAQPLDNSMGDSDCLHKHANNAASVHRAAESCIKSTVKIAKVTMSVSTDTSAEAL
Experimental: as §1

[1] = agonist, forskolin-stimulated cAMP in CHO cells expressing human CB2, text calls the value IP, read-out: CB2 cAMP

human CB2, sequence (P34972 whole entry): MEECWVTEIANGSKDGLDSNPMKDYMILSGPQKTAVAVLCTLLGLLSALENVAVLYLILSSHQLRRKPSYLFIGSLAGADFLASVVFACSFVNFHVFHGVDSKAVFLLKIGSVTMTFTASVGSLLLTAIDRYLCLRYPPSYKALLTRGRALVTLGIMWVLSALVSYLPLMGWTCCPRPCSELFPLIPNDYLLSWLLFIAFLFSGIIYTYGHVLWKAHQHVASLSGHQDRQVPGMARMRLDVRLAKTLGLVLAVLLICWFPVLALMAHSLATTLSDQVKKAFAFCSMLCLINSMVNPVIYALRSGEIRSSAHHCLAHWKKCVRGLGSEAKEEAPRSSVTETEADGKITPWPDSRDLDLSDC

**Q.** With O=C(c1ccc2ccccc2c1)c1nc(CN2CCOCC2)c2ccccn12 as the molecule, how does the EC50 (human CB2) read?
**A.** 2.28 nM

**Q.** What about the Emax (human CB2) of the same molecule?
**A.** 76.7%

**Q.** What about the EC50 (human CB1) of the same molecule?
**A.** 878 nM

**Q.** For O=C(Nc1ccccc1Cl)c1nc(CN2CCC(O)C2)c2ccccn12 (stereo not drawn), which Emax (human CB2) is on record?
**A.** 69.9%

**Q.** And the EC50 (human CB2; [1])?
**A.** 261 nM

**Q.** What about the EC50 (human CB1) of the same molecule?
**A.** > 17000 nM

**Q.** For CC(NC(=O)c1nc(Cl)c2ccccn12)c1ccccc1Cl (stereo not drawn), which EC50 (human CB2) is on record?
**A.** 18.4 nM

**Q.** And the Emax (human CB2)?
**A.** 83.8%

**Q.** And the EC50 (human CB1)?
**A.** > 17000 nM

**Q.** Which EC50 (human CB2) does the source give for O=C(NC12CC3CC(CC(C3)C1)C2)c1nc(C(O)c2cccnc2)n2ccccc12 (stereo not drawn) here?
**A.** 46.2 nM

**Q.** What about the Emax (human CB2) of the same molecule?
**A.** 80.8%

**Q.** And the EC50 (human CB1)?
**A.** > 17000 nM

**Q.** O=C(NCC1CCOCC1)c1nc(-c2cccnc2)n2ccccc12 was tested. Which Emax (human CB2) did it give?
**A.** 74.7%

**Q.** And the EC50 (human CB2; [1])?
**A.** 6430 nM

**Q.** And the EC50 (human CB1)?
**A.** > 17000 nM

**Q.** How did the EC50 (human CB2) turn out when O=C(NC12CC3CC(CC(C3)C1)C2)c1nc(Oc2cccc(F)c2)n2ccccc12 was run?
**A.** 1.92 nM

**Q.** And the Emax (human CB2)?
**A.** 91.5%

**Q.** What about the EC50 (human CB1) of the same molecule?
**A.** 140 nM

**Q.** How did the Emax (human CB2) turn out when O=C(c1cccc(Cl)c1)c1nc(-c2ccc(F)cc2)n2ccccc12 was run?
**A.** 63.7%

**Q.** What about the EC50 (human CB2; [1]) of the same molecule?
**A.** 176 nM

**Q.** And the EC50 (human CB1)?
**A.** > 17000 nM

**Q.** For O=C(NC1(c2ccccc2)CC1)c1nc(-c2cccc(F)c2)n2ccccc12, which EC50 (human CB2) is on record?
**A.** 62 nM

**Q.** And the Emax (human CB2)?
**A.** 69.8%

**Q.** What about the EC50 (human CB1) of the same molecule?
**A.** 544 nM

**Q.** Which EC50 (human CB2) does the source give for O=C(NC(C1CC1)C1CC1)c1nc(-c2ccc(F)cc2)c2ccccn12 here?
**A.** 2.01 nM

**Q.** And the Emax (human CB2)?
**A.** 96.4%

**Q.** And the EC50 (human CB1)?
**A.** 405 nM

**Q.** O=C(NC12CC3CC(CC(C3)C1)C2)c1nc(C2CCCN2)n2ccccc12 (stereo not drawn) was tested. Which EC50 (human CB2) did it give?
**A.** 5.93 nM

**Q.** What about the Emax (human CB2) of the same molecule?
**A.** 87.1%

**Q.** What about the EC50 (human CB1) of the same molecule?
**A.** 845 nM

**Q.** O=C(Nc1cccc2cnccc12)c1nc(C(=O)N2CCC(F)CC2)n2ccccc12 was tested. Which EC50 (human CB2) did it give?
**A.** 23.5 nM

**Q.** What about the Emax (human CB2) of the same molecule?
**A.** 79.5%

**Q.** What about the EC50 (human CB1) of the same molecule?
**A.** 2150 nM

**Q.** With CC(NC(=O)c1nc(N2CCOCC2)n2ccccc12)C(C)(C)C (stereo not drawn) as the molecule, how does the EC50 (human CB2) read?
**A.** 5.2 nM

**Q.** What about the Emax (human CB2) of the same molecule?
**A.** 99.5%

**Q.** And the EC50 (human CB1)?
**A.** > 17000 nM
